According to article PMC12209456, “Serine/threonine/tyrosine kinase 1 drives pancreatic carcinogenesis via GSK3β sequestration-mediated Wnt/β-catenin pathway hyperactivation” (Signal Transduction and Targeted Therapy, 2025):
Counter-ions that a name gives are not always drawn.

Experiments:
[1] = test system: Wnt/β-catenin signaling in colorectal cancer; details: cited from earlier work
Excerpt: Continuously activated Wnt/β-catenin signaling via genetic or epigenetic ways, serves as a potent oncogenic driver across malignancies, spurring intensive efforts to develop targeted inhibitors. Nonetheless, tissue homeostasis and regeneration could be impaired upon the blockade of Wnt signaling, which needs to be resolved and limits Wnt-based therapies. Recent breakthroughs have unmasked tumor-specific vulnerabilities, identifying cancer-cell-restricted regulators that fine-tune Wnt signaling outputs, offering promising avenues for selectively crippling oncogenic Wnt activity.[59] For example ...

PANC-1 xenograft = PANC-1 xenograft in nude mice; type: in vivo, mouse
Procedure: PANC-1 xenograft tumors were further established in nude mice via subcutaneous hindlimb injection (Fig. 8e). 25 mg/kg STYK1-driving peptides were intraperitoneally injected twice a week after the subcutaneous tumor formed.
(2) Mouse subcutaneous xenograft experiments were carried out as previously described.[25] Female BALB/c nude mice (4-week-old, 18–22 g) were sourced from Hunan SJA Laboratory Animal (Cat: hnslkjd006; Changsha, China) and housed under SPF conditions with routine health surveillance.

[2] = test system: STYK1 Y191 phosphorylation by BLK kinase; experiment: STYK1 tyrosine phosphorylation by BLK (IP-Western / in vitro kinase assay); type: biochemical; details: HEK293T cells, BLK overexpression; GST-STYK1 ICD and HA-BLK kinase reactions
Procedure: (§1) Whole-cell extracts were prepared with 1% sodium dodecyl sulfate lysis buffer with freshly added 1% proteinase inhibitor cocktail (Biomake, B14001) and 1 mM phenylmethylsulfonyl fluoride (PMSF, MCE, HY-B0496). Western blot was performed as described previously.[20] The following primary antibodies were used: anti-phospho-β-catenin (Ser33/37/Thr41) (9561, Cell Signaling Technology), anti-β-catenin (51067-2-AP, Proteintech), anti-β-TrCP (4394, Cell Signaling Technology), anti-Non-phospho (Active) β-catenin (Ser33/37/Thr41) (8814, Cell Signaling Technology), anti-STYK1 (862318, zenbio), anti-C-myc (10828-1-AP, Proteintech), anti-CyclinD1 (60186-1-Ig, Proteintech), anti-Axin2 (20540-1-AP, Proteintech), anti-mouse HA (M180-3, EMD Millipore), anti-Rabbit HA (51064-2-AP, Proteintech), anti-mouse […] (M185, MBL), anti-Rabbit […] […]
GST affinity-isolation assay was performed as described previously.[18] […] Surface plasmon resonance analysis (Biacore T200) quantified binding kinetics between GST-β-catenin/GSK3β and synthetic α-helical peptides, with dissociation constants calculated via BIA evaluation software.

[3] = test system: β-catenin/TCF4 transcriptional activity; experiment: 7TGC reporter assay; type: cell-based, human; details: PANC-1 cells, EGF (100 ng/mL) or CQ (100 μM)
Excerpt: The PCR products of STYK1, GSK3β, and Axin1 were cloned into pcDNA3.1-3×HA, pCMV-3×Flag (Sigma, E4401), and pCMV-mCherry (constructed by our lab) respectively. […] To make STYK1, β-catenin, GSK3β, or BLK mutants or truncations, a series of forwarding primers harboring the desired mutations were used in PCRs. The nucleotide sequences of all constructs were confirmed by DNA sequencing. […] DNA and interference RNA were transfected with Lipofectamine 3000 (Invitrogen, L3000015) according to the manufacturer’s instructions. shRNA for STYK1 #1: 5ʹ- [sequence] -3ʹ. #2: 5ʹ- [sequence] -3ʹ. siRNA for STYK1 was 5ʹ- [sequence] -3ʹ. siRNA for β-catenin was 5ʹ- [sequence] -3ʹ. siRNA for HRS was 5ʹ- [sequence] -3ʹ, siRNA for VPS24 was 5ʹ- [sequence] -3ʹ.

CyclinD1/Axin2/C-myc = experiment: Wnt target gene expression (western blot, qRT-PCR); type: cell-based, human; details: PANC-1 cells, EGF (100 ng/mL) or CQ (100 μM)
Procedure: Whole-cell extracts were prepared with 1% sodium dodecyl sulfate lysis buffer with freshly added 1% proteinase inhibitor cocktail (Biomake, B14001) and 1 mM phenylmethylsulfonyl fluoride (PMSF, MCE, HY-B0496). Western blot was performed as described previously.[20]
Total RNA was extracted from cultured pancreatic cancer cells using Trizol reagent (Invitrogen) according to the manufacturer’s protocol. qRT-PCR was performed as previously described.^3 The mRNA expression level for each sample was normalized to the expression of GAPDH using the 2 ^-ΔΔct method^4 with three biological replicates of comparative qRT-PCR. The following primer sequences were used for qRT-PCR: GAPDH, (forward) 5′- […] -3′ and (reverse) 5′- […] -3′; CyclinD1, (forward) 5′- […] -3′ and (reverse) 5′- […] -3′; C-myc, (forward) 5′- […] -3′ and (reverse) 5′- […] -3′; Axin2, (forward) 5′- […] -3′ and (reverse) 5′- […] -3′; STYK1, (forward) 5′- […] -3′ and (reverse) 5′- […] -3′. Amplification was performed in an ABI Q3 real-time PCR system using a SYBR Green master mix (YEASEN, 11201ES08).

Wnt/β-catenin signaling = experiment: STYK1-mediated Wnt/β-catenin signaling, PANC-1 cells; type: cell-based, human
Procedure: as §1

p62 and LC3 = experiment: Autophagic flux markers p62 and LC3, PANC-1 cells (western blot); type: cell-based, human
Procedure: as §1

Compound: bafilomycin
- inhibition of Wnt/β-catenin signaling [1]: marked inhibition of Wnt/β-catenin signaling in colorectal cancer

Compound: Oc1nc(-c2ccc(C(F)(F)F)cc2)nc2c1CSCC2 [XAV939]
- tumor growth (methods statement) (PANC-1 xenograft; BALB/c nude mice, PANC-1 xenografts, biweekly intraperitoneal, synthetic peptides (25 mg/kg)): reduced tumor growth
- STYK1-mediated xenograft tumor growth (PANC-1 xenograft; PANC-1 xenografts with STYK1 WT or mutants, nude mice, n = 3): suppressed STYK1-mediated xenograft tumor growth, including mutant variants

Compound: CN1CCN(CCOc2cc(OC3CCOCC3)c3c(Nc4c(Cl)ccc5c4OCO5)ncnc3c2)CC1 [saracatinib]
- BLK-mediated phosphorylation of STYK1 Y191 [2]: saracatinib inhibition

Compound: CCN(CC)CCCC(C)Nc1ccnc2cc(Cl)ccc12 (stereo not shown) [CQ, chloroquine diphosphate salt]
- Wnt signaling in the 7TGC system [3]: decreased Wnt signaling in the 7TGC system
- STYK1-mediated alteration of the Wnt/β-catenin target genes C-myc, Axin2 (CyclinD1/Axin2/C-myc): down-regulated STYK1-mediated alteration of the Wnt/β-catenin target genes C-myc, Axin2

Compound: O=C(N/N=C/c1ccc(O)c(O)c1)c1cc2ccccc2cc1O [dynasore]
- STYK1-mediated activation of Wnt/β-catenin signaling (Wnt/β-catenin signaling): significantly blocked STYK1-mediated activation of Wnt/β-catenin signaling
- level of LC3 (p62 and LC3): decreased
- level of p62 (p62 and LC3): increased

Compound: C/C=C/[C@H]1O[C@@](O)([C@@H](C)[C@H](O)[C@H](C)[C@H]2OC(=O)/C(OC)=C/C(C)=C/[C@@H](C)[C@@H](O)[C@@H](CC)[C@@H](O)[C@H](C)C/C(C)=C/C=C/[C@@H]2OC)C[C@@H](O)[C@@H]1C [concanamycin]
- inhibition of Wnt/β-catenin signaling [1]: marked inhibition of Wnt/β-catenin signaling in colorectal cancer
